Measurements as given in patent US20230095341A1, “COMPOSITIONS AND METHODS FOR TREATING NEURODEGENERATIVE, MYODEGENERATIVE, AND LYSOSOMAL STORAGE DISORDERS” (GEORGETOWN UNIVERSITY, priority 2020, published 2023).
“Also recorded” adds a separate entry of the source.

Key:
p-Tau AT180 (Thr231) = assay: Western blot of p-Tau AT180 (Thr231); assay type: in vivo, mouse (rTG4510, expressing human P301L tau); conditions: 2.5 mg/kg; vs DMSO
Procedure: (§1) Tauopathy rTG4510 mice (i.e., a mouse model that clinically manifest a tauopathy), expressing human P301L tau driven by a CAMrII promoter, approximately 9-12 months old, were treated intraperitoneally (I.P.) for 21 consecutive days, with 2.5 mg/kg (n=6) BK40197, 5.0 mg/kg (n=6) BK40197, or Dimethyl sulfoxide (DMSO) (n=7).
(§2) Samples collected from DMSO, 2.5 mg/kg-, and 5.0 mg/kg-treated animals were electrophoresed in a NuPAGE 10% Bis-Tris gel and transferred to a nitrocellulose membrane. Membranes were then probed for total humnan tau (HT-7 antibody and Tau-5 antibody) and phospho-tau (pTau AT180 antibody and pTau AT8 antibody), as well as actin, and treated with an anti-mouse secondary antibody. before exposure using SuperSignal West Dura (Thermo Fisher Scientific, Waltham, Mass.) substrates. Some animials were excluded from analysis due to low transgene expression.

p-Tau (Ser396) = assay: pTau Ser396 ELISA of total brain lysates; assay type: in vivo, mouse (rTG4510, expressing human P301L tau); conditions: for reduction in pTau Ser396: vs DMSO
Procedure: as §1
pTau Ser396 (Invitrogen, Cat. No. KHB7031, Carlsbad, Calif.) were performed according to manufacturer's protocol on samples collected from DMSO, 2.5 mg/kg-, and 5.0 mg/kg-treated animals. Samples for ELISA were total brain lysates extracted in IX STEN buffer.

[1] = system: Tauopathy rTG4510 mice expressing human P301L tau; assay: Overnight nest shredding (nesting) behavior; assay type: in vivo, mouse; conditions: 2.5 mg/kg I.P., three weeks
Procedure: Tauopathy rTG4510 mice (i.e., a mouse model that clinically manifest a tauopathy), expressing human P301L tau driven by a CAMrII promoter, approximately 9-12 months old, were treated intraperitoneally (I.P.) for 21 consecutive days, […], or Dimethyl sulfoxide (DMSO) (n=7).
Then, blinded, independent observers reviewed images of the overnight shredding and the average quality scores were calculated.
For nest shredding, Mann-Whitney analysis was used within groups, between timepoints, and Kruskal-Wallis analysis was used between treatment groups. For open-field studies, : ordinary one-way ANOVA or Student's I test was used. […]
Blinded independent observers reviewed images of the overnight shredding and the average quality scores were calculated.

[2] = system: p-Tau AT8 (Ser202, Thr205); assay: Western blot of p-Tau AT8 (Ser202, Thr205); assay type: in vivo, mouse (rTG4510, expressing human P301L tau); conditions: 2.5 mg/kg; vs DMSO
Procedure: as §1, §2

[3] = system: Tauopathy rTG4510 mice expressing human P301L tau; assay: Open-field behavior; assay type: in vivo, mouse
Procedure: as §1
Open-field behavior was assessed in an open-field apparatus where animals were tracked by photocell beams along the arena floor for 60 minutes. Data were collected and analyzed for total distance traveled (cm), total time spent moving (sec), and velocity (distance/time) during the 60-minute trial. A center zone was digitally defined in the software, in the center of the apparatus, and center zone entries during the 60-minute trial were recorded.
For nest shredding, Mann-Whitney analysis was used within groups, between timepoints, and Kruskal-Wallis analysis was used between treatment groups. For open-field studies, : ordinary one-way ANOVA or Student's I test was used.

[4] = target: T1, phosphorylated DDR1 (pDDR1 Tyr513, 296) (Mus musculus, UniProt Q03146); assay: Western blot of phosphorylated DDR1; assay type: in vivo, mouse (rTG4510); conditions: vs DMSO, normalized to actin
T1 construct: Samples collected from DMSO, 2.5 mg/kg-, and 5.0 mg/kg-treated animals were electrophoresed; from tissue; the ELISA samples were total brain lysates
T1 sequence (Q03146 20-911): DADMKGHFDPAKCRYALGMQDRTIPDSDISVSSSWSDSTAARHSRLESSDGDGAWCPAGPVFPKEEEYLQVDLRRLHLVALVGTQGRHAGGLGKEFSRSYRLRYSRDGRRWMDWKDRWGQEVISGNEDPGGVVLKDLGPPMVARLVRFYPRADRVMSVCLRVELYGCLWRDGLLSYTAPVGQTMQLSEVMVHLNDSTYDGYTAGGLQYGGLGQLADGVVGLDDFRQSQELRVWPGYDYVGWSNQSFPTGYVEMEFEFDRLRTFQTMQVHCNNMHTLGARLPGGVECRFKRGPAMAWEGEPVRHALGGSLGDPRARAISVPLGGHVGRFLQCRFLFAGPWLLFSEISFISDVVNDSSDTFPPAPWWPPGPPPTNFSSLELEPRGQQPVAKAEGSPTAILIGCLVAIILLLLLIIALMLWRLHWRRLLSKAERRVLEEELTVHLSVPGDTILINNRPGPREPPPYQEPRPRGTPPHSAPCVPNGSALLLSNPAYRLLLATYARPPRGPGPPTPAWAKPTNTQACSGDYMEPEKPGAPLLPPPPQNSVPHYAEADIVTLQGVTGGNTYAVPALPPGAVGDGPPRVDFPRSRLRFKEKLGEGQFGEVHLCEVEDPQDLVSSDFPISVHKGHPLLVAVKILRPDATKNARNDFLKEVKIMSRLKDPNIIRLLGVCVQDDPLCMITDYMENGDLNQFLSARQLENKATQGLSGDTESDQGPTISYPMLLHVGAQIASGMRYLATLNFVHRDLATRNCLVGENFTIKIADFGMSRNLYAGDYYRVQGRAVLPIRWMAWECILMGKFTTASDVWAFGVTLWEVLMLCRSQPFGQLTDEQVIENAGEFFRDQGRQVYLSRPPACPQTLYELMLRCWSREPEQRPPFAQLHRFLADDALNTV

tau = assay: Tau ELISA of whole brain lysates from rTG4510 mice (CL-287-2); assay type: in vivo, mouse (rTG4510, expressing human P301L Tau); conditions: 5 mg/kg; 12 month old rTG4510 mice
Procedure: Tauopathy rTG4510 mice expressing human P301L Tau driven by CAMIII were treated I.P. for 7 or 21 consecutive days with 1.25 mg/kg, 2.5 mg/kg, 5.0 mg/kg of BK40143 or Dimethyl sulfoxide (DMSO).
pTau Ser396 (Invitrogen, KHB7031) ELISA was performed according to manufacturer's protocol on samples collected from DMSO and 2.5mgkg. S.Omg′kg, and 10 mg/kg treated mice. Samples were total brain lysates extracted in lX STEN buffer. Ordinary one-way ANOVA or Student's ! test was used. * P<0.05

[5] = system: B35 rat neuroblastoma cells; assay: Lactate dehydrogenase (LDH) assay, cell toxicity; assay type: cell-based; conditions: 5 hours, concentration given in the value
Procedure: (§3) Rat neuroblastoma B35 cells were grown in Dulbecco's Modified Eagle's Medium (DMEM) with 10% Fetal Bovine Serum (FBS) and 1% penicillin/streptomycin and incubated at 37° C. with 5% CO2. For the experiments, cells were transferred to 12-well plates (Cat. #150628, ThermoFisher, Waltham, Mass.) and grown to at least 70% confluence. Transient transfection was performed with 3pg P301L tau (Cat. #30145, Addgene) cDNA or 3pg human a-synuclein cDNA using Fugene HD transfection reagent (Cat. #E2311, Promega, Madison Wis.) for 24 hours. Cells were treated with ImM, I00pM, 10pM, IpM, 0.lIM, 0.01pMl, and 0.001pM dissolved in DMSO or an equivalent SuL of DMSO for 5 hours. Cell culture media was collected and cells were harvested using sodium-tris, EDTA, NP-40 (STEN) buffer and centrifuged at 10,000×g for 20 minutes at 4′C and supernatant was collected. Cell viability was determined via lactate dehydrogenase assay (Cat. #88954, Thermofisher) and MTT assay (Cat. #V13154, Thennofisher). Protein was extracted by removing culture medium and adding 0.2 ml lx STEN buffer (50 mM Tris (pH 7.6), 150 mM NaCl, 2 mM EDTA, 0.2% NP-40, 0.2% BSA, 20 mM PMSF and protease cocktail inhibitor) to cell layer and incubated on ice for 10 minutes. The bottom of the well was scraped and allowed to incubate on ice for an additional 10 minutes. Cell lysates were collected, stored at -80° C., and used for additional analyses.
(§4) Compound 1 (BK5018), Compound 2 (BK5026), Compound 3 (BK5029), Compound 4 (BD5040), Compound 6 (CL2-296). Compound 7 (CL-2-287-1) and Compound 8 (CL-2-287-2) with molecular weights of 284, 339.265, 264, 339, 269 and 247 gimol, respectively, were diluted in Dimethyl Sulfoxide (DMSO) to final concentrations of 100 pM, 10 µM, 1 pM, 0.1 pM, 0.01 pM, and 0.001 pM. Drugs were stored at −80° C.
Cellular cytotoxicity was quantitatively measured by assessment of LDH, a cytosolic enzyme that is released from damaged cells into the cellular media, after exposure to the drug 5 hours after initial dosage. The cell culture media was collected, and an aliquot was coupled with a lactate and NAD+. LDH catalyzes the reaction that converts lactate into pyruvate to produce NADH. NADH, in turn, reduces a tetrazolium salt (NT) into a red fornazan product. The amount of LDH in the media is proportional to the amount of formazan which was measured at 490 nn. The absorbance at 680 nm, to measure the background signal from the instrument, was subtracted from the absorbance at 490 nm to calculate the LDH activity. CelfCulture

[6] = system: B35 rat neuroblastoma cells; assay: MTT assay, cell viability; assay type: cell-based; conditions: 5 hours, concentration given in the value
Procedure: as §3, §4
To measure cell viability, cells were incubated with 500 pL of Dulbecco's Modified Eagle's Medium (DMEf) containing 50 pL of (3-[4,5-dimethylthiazol-2-yl]-2,5-diphenyl-tetrazolium bromide (ivT)) for 5 hours at 37° C. and 5% CO2. The media was aspirated so that 125 uL of media remained. The formazan salts were dissolved in 250 uL of DMSO. Absorbance was read against a blank containing 125 uL of media and MTT, and 250 uL of DMSO at 570 mn.

SMILES: Cc1cccc(-c2cc3nccc(N4CCOCC4)c3s2)c1 [BK40197, 4-(2-(m-Tolyl)thieno[3,2-b]pyridin-7-yn)morpholine]
- reduction in the ratio of p-Tau (Thr231) (AT180) to total Tau (p-Tau AT180 (Thr231)): 22%
- reduction in pTau Ser396 (p-Tau (Ser396); 2.5 mg/kg): 11%
- reduction in pTau Ser396 (p-Tau (Ser396); 5.0 mg/kg): 23%
- p-Tau (Ser396) levels (p-Tau (Ser396); dose dependent, 2.5 and 5.0 mg/kg, quantitative ELISA): significantly reduces
- nesting raw scores (nesting qualitative score) ([1]; vs 0 weeks (Mann-Whitney P=0.09) and vs DMSO (Kruskal-Wallis P=0.06)): nesting performance improved; also recorded: increase in performance
- nesting mean difference scores ([1]; vs DMSO (Kruskal-Wallis P=0.06)): nesting performance improved; also recorded: increase in performance
- reduction in the ratio of p-Tau AT8 (Ser202, Thr205) to total Tau [2]: 14%
- overall motor ability (open field) ([3]; 5.0 mg/kg I.P., 60 minutes open field): does not alter overall motor ability
- open-field distance travelled ([3]; 5.0 mg/kg, sixty minutes, vs DMSO (ANOVA p=0.29)): non-significant reduction
- open-field time spent moving ([3]; 5.0 mg/kg, sixty minutes, vs DMSO (ANOVA p=0.32)): non-signicant reduction; also recorded: non-significant reduction
- hyperactivity/anxiety by observed center zone entries ([3]; 5.0 mg/kg, vs DMSO): no sign of hyperactivity/anxiety; also recorded: no sign of hyperactivity % anxiety
- open-field velocity ([3]; 5.0 mg/kg, vs DMSO): no difference in velocity
- reduction in phosphorylated DDR1 (pDDR1 Tyr513, 296) ([4]; 2.5 mg/kg): 22%
- reduction in phosphorylated DDR1 (pDDR1 Tyr513, 296) ([4]; 5.0 mg/kg): 21%

SMILES: O=C(O)c1ccccc1Nc1cccc(Cl)c1 [CL-2-287-2, 2-((3-Chlorophenyl)amino)benzoic acid]
- tau in whole brain lysates (tau): significant reduction
- cell toxicity, as measured by LDH assay [5]: at 100 uM or less did not show increased cell toxicity; also recorded: at 100 pM or less did not show increased cell toxicity
- cell toxicity, as measured by MTT assay [6]: at 10 pM or less did not show increased cell toxicity
